Results published in PubChem BioAssay AID504609 (Sanford-Burnham Center for Chemical Genomics, 2011).
Active and inactive are the calls of the source.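 The calls were made as follows: active = IC50 under a set limit, which marks the compound as nonspecific in this counterscreen; inactive = the rest.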

Molecular target: SaOS-2 dox-inducible full-length luciferase, luminescence counterscreen
Assay: luminescence decrease from intact luciferase reporter – cell-based, SaOS-2, dox-inducible, counter-screen for Mdm2/MdmX interaction inhibitor project, dose response (AID 504609)

IC50 | SMILES
8.88 µM | CC1(C)C(=O)Nc2ccccc2N1C(=O)Cn1ncc(Cl)c(Cl)c1=O
7.44 µM | Cn1nc([N+](=O)[O-])nc1Sc1nnc(-c2ccccc2)o1
12.5 µM | CCOc1cc(N2CCOCC2)c(OCC)cc1NC(=O)COc1cccc2cccnc12
5.78 µM | CC(=O)c1ccc(-c2ccc(C(=O)Nc3nc(-c4ccccn4)cs3)o2)cc1
15.5 µM | COc1ccc(-c2cc3c(=O)n(CC(=O)NCCCN4CCC(N5CCCCC5)CC4)nc(C)n3n2)cc1
6.23 µM | O=C(/C=C/c1c(F)cccc1Cl)c1ccc(O)cc1
2.67 µM | O=[N+]([O-])c1ccccc1S(=O)(=O)Nc1cccc2cccnc12
2.27 µM | CC(C)c1cccc(O)c(=O)c1
2.41 µM | CCOC(=O)/C=C/C(=O)OCC(=O)NC(c1ccccc1)c1ccccc1
> 79 µM (inactive) | CCOC(=O)c1ccc(Nc2nc(N)c3cc(OC)c(OC)cc3n2)cc1
1.57 µM | O=C(CN1CCCc2ccccc21)N/N=C/c1c(O)ccc2ccccc12
3.58 µM | Cc1cccn2c(=O)c3cc(C(=O)NCCc4ccccc4)c(=N)n(Cc4ccco4)c3nc12
13.8 µM | Cc1nc(NC2=NCN(CCCN3CCOCC3)CN2)nc2c(C)cccc12
7.64 µM | CCN1C/C(=C/c2ccc(OC)c(O)c2)C(=O)/C(=C/c2ccc(OC)c(O)c2)C1
5.16 µM | CCN(CC)S(=O)(=O)c1ccc(NC(=O)c2cccnc2Cl)c(NC(=O)c2cccnc2Cl)c1
3.87 µM | COc1cc(-c2nc(-c3ccc(NC(=O)c4ccc5c(c4)OCO5)cc3)no2)cc(OC)c1OC
11.5 µM | C/C(=N\Nc1cc(C)nc(-c2ccccc2O)n1)c1ccccc1O
0.137 µM | COCCn1c(C)cc(C2=NNC(=Nc3ccccc3F)SC2)c1C
1.75 µM | COc1ccc2c(c1)C1(Nc3ccccc3-c3nc4ccccc4n31)C(=O)N2C (stereo not given)
2.38 µM | O=c1oc2ccccc2cc1-c1cn(-c2ccccc2)c(=S)[nH]1
